ChEMBL document CHEMBL1148881 (Bioorg Med Chem Lett, 2007)

Experiments:
[1] = target: T1, Peroxisome proliferator-activated receptor alpha (Homo sapiens, UniProt Q07869)
T1 sequence (Q07869 whole entry): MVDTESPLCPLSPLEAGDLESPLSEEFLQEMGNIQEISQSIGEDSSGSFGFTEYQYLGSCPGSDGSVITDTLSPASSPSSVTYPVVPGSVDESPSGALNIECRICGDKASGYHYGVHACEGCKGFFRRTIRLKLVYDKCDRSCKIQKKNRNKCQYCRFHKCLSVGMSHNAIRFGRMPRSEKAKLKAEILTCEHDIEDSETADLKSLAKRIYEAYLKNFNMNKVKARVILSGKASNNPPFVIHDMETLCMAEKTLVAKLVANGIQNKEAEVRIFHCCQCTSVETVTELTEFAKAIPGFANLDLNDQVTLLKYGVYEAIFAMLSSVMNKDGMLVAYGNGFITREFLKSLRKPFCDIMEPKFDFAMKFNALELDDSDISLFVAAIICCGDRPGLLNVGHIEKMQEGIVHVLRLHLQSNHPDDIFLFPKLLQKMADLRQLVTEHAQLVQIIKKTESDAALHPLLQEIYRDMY
Description: Displacement of [3H]2-(4-(2-(3-(2,4-difluorophenyl)-1-heptylureido)ethyl)phenoxy)-2-methylbutanoic acid from human PPARalpha after 30 mins by SPA assay

[2] = target: T2, Peroxisome proliferator-activated receptor delta (Homo sapiens, UniProt Q03181)
T2 sequence (Q03181 whole entry): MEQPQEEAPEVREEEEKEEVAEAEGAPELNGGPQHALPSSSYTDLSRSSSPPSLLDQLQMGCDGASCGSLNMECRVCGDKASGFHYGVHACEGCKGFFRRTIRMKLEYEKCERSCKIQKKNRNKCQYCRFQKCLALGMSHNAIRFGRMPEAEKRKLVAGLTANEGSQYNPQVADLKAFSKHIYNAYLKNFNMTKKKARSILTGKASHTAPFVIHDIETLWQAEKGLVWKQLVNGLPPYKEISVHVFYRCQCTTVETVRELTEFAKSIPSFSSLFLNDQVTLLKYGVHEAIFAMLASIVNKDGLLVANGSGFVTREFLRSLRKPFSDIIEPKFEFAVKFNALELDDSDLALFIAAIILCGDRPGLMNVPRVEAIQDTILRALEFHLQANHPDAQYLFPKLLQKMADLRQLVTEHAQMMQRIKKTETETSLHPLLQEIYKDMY
Description: Displacement of [3H]2-(4-(3-(4-acetyl-3-hydroxy-2 propyl-phenoxy)propoxy)phenoxy)acetic acid from human PPARdelta after 30 mins by SPA assay

[3] = target: T2, Peroxisome proliferator-activated receptor delta; format: functional, cell-based, HepG2
Description: Agonist activity at human PPARdelta expressed in HepG2 cells after 16 hrs by luciferase reporter gene assay

| Structure (SMILES) | IC50 [1] | IC50 [2] | EC50 [3] | IC50 [3] |
| --- | --- | --- | --- | --- |
| O=C(O)COc1ccc(SCc2c(F)cccc2OCc2ccc(C(F)(F)F)cc2)c2c1CCC2 | > 10000 nM | 286 nM | 2610 nM |  |
| O=C(O)COc1ccc(SCc2ccccc2OCc2ccc(C(F)(F)F)cc2)c2c1CCC2 | > 10000 nM | 10.4 nM | 230 nM |  |
| O=C(O)COc1ccc(SCc2cc(F)ccc2OCc2ccc(C(F)(F)F)cc2)c2c1CCC2 | > 10000 nM | 1.7 nM | 70 nM |  |
| O=C(O)COc1ccc(SCc2ccc(OCc3ccc(C(F)(F)F)cc3)cc2)c2c1CCC2 | 1200 nM |  |  |  |
| O=C(O)COc1ccc(SCc2cccc(F)c2OCc2ccc(C(F)(F)F)cc2)c2c1CCC2 | 3670 nM | 111 nM |  |  |
| COc1ccc(COc2ccc(CSc3ccc(OCC(=O)O)c4c3CCC4)cc2)cc1 | 4950 nM | 120 nM | 1970 nM |  |
| Cc1cc(SCc2ccc(OCc3ccc(C(F)(F)F)cc3)cc2)c(Cl)cc1OCC(=O)O | 128 nM | 20 nM | 374 nM |  |
| COc1cc(OCC(=O)O)c(C)cc1SCc1ccc(OCc2ccc(C(F)(F)F)cc2)cc1 | 4.7 nM |  |  |  |
| O=C(O)COc1ccc(SCc2ccc(OCc3ccc(C(F)(F)F)cc3)cc2)c2c1CCCO2 | 791 nM |  |  |  |
| Cc1cc(SCc2ccc(OCc3ccc(C(F)(F)F)cc3)cc2)c2c(c1OCC(=O)O)CCC2 | 311 nM | 586 nM |  | > 10000 nM |
| Cc1cc(SCc2ccc(OCc3ccc(C(F)(F)F)cc3)cc2)c2c(c1OCC(=O)O)CCCO2 | 428 nM | 313 nM |  | > 10000 nM |
| O=C(O)COc1ccc(SCc2ccc(OCc3ccccc3)cc2)c2c1CCC2 | > 10000 nM | 125 nM | 2210 nM |  |
| O=C(O)COc1ccc(SCc2ccc(OCc3cc(Cl)ccc3Cl)cc2)c2c1CCC2 | 4190 nM | 69 nM | 585 nM |  |
| O=C(O)COc1ccc(SCc2ccc(OCc3ccc(Cl)cc3)cc2)c2c1CCC2 | 3910 nM | 89 nM | 933 nM |  |
| CC(C)(C)c1ccc(COc2ccc(CSc3ccc(OCC(=O)O)c4c3CCC4)cc2)cc1 | 1540 nM | 148 nM | 267 nM |  |
| O=C(O)COc1ccc(SCc2ccc(F)cc2OCc2ccc(C(F)(F)F)cc2)c2c1CCC2 | 3110 nM | 62 nM |  |  |
| O=C(O)COc1ccc(SCc2ccc(OCc3ccc(F)cc3C(F)(F)F)cc2)c2c1CCC2 | 3480 nM | 356 nM | 1720 nM |  |
| O=C(O)COc1ccc(SCc2ccc(OCc3ccc(OC(F)(F)F)cc3)cc2)c2c1CCC2 | 672 nM | 76 nM | 530 nM |  |
| O=C(O)COc1ccc(SCc2ccc(OCc3ccc(F)cc3)cc2)c2c1CCC2 | > 10000 nM | 191 nM | 13600 nM |  |
| Cc1cc(SCc2ccc(OCc3ccc(C(F)(F)F)cc3)cc2)ccc1OCC(=O)O | 578 nM | 19 nM | 252 nM |  |
